pEC50, pIC50: −log10 of the molar value. Like-named read-outs stand apart in the source and are kept apart here.
Key:
[1] = molecular target: T1, human DGKζ (Homo sapiens, UniProt Q13574); experiment: DGKζ LIPGLO assay (extruded liposome substrate), in vitro DGK inhibition; format: biochemical; details: read-out: DGKz LIPGLO IC50
T1 construct: TVMV protease cleavage site (C); Hexa-His (C); made in house; host or cells: Sf9 insect cells (baculovirus, Bac-to-Bac)

[2] = molecular target: T2, human DGKα (Homo sapiens, UniProt P23743); experiment: DGKα LIPGLO assay (extruded liposome substrate), in vitro DGK inhibition; format: biochemical; details: read-out: DGKa LIPGLO IC50
T2 construct: TVMV protease cleavage site (C); Hexa-His (C); made in house; host or cells: Sf9 insect cells (baculovirus, Bac-to-Bac)
T2 sequence (P23743 with tags, fused parts or gaps): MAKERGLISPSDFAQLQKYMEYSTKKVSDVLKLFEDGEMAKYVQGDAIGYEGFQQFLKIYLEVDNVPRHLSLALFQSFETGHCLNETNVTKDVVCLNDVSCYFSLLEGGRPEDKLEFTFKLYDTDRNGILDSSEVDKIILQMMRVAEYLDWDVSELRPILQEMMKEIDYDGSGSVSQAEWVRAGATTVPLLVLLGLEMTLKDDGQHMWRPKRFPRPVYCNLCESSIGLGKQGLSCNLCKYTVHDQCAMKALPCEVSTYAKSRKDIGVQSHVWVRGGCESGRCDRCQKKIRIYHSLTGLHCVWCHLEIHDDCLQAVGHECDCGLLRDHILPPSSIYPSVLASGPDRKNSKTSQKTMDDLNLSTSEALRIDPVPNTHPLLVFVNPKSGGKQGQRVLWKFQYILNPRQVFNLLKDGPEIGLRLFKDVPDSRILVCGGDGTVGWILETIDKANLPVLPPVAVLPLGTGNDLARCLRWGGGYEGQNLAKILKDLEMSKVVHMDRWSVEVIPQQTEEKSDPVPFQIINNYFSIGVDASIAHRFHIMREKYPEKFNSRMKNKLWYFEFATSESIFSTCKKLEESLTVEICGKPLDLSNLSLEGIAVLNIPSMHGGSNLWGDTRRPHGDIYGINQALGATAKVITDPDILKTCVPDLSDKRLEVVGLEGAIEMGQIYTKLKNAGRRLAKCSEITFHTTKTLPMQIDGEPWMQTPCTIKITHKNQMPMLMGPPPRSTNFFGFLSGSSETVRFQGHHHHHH

[3] = system: naïve human CD8 T cells; experiment: Human CD8 T cells IFN-γ assay; format: cell-based; details: read-out: HuCD8 INFG Normalized EC50;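 also: Naïve human CD8 T cells stimulated with plate-bound anti-CD3 and soluble anti-CD28, IFN-γ in supernatant quantified by AlphaLISA and converted to pg/mL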
[4] = system: Human venous whole blood; experiment: Human whole blood IFN-γ assay; format: cell-based; details: human whole blood, read-out: INFg Whole Blood Normalized Agonist EC50;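 also: blood from healthy donors exposed to compound for 1 h before stimulation with anti-CD3 and anti-CD28 at 1 µg/mL each, IFN-γ quantified in supernatant by AlphaLISA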
Protocol: Human Whole Blood IFN-γ Assay
Human venous whole blood (22.5 μL per well), obtained from healthy donors, was pre-treated with compounds for one hour at 37° C. in a humidified 95% air/5% CO2 incubator. The blood was stimulated with 2.5 μL anti-human CD3 and anti-CD28 mAb at a final concentration of 1 μg/mL each for 24 hours at 37° C. IFN-γ in the supernatants was measured using AlphLISA kit (Cat # AL217).

[5] = Homo sapiens, T-cell, 20 h, normalized to 3 μM reference compound with anti-CD3 plus anti-CD28 as 100% activation
[6] = Homo sapiens, 24 h, normalized to 3 μM reference compound with anti-CD3 plus anti-CD28 as 100% activation
[7] = normalized to 3 μM reference compound with anti-CD3 plus anti-CD28 as 100% activation

T1 sequence (Q13574 with tags, fused parts or gaps isoform Q13574-4): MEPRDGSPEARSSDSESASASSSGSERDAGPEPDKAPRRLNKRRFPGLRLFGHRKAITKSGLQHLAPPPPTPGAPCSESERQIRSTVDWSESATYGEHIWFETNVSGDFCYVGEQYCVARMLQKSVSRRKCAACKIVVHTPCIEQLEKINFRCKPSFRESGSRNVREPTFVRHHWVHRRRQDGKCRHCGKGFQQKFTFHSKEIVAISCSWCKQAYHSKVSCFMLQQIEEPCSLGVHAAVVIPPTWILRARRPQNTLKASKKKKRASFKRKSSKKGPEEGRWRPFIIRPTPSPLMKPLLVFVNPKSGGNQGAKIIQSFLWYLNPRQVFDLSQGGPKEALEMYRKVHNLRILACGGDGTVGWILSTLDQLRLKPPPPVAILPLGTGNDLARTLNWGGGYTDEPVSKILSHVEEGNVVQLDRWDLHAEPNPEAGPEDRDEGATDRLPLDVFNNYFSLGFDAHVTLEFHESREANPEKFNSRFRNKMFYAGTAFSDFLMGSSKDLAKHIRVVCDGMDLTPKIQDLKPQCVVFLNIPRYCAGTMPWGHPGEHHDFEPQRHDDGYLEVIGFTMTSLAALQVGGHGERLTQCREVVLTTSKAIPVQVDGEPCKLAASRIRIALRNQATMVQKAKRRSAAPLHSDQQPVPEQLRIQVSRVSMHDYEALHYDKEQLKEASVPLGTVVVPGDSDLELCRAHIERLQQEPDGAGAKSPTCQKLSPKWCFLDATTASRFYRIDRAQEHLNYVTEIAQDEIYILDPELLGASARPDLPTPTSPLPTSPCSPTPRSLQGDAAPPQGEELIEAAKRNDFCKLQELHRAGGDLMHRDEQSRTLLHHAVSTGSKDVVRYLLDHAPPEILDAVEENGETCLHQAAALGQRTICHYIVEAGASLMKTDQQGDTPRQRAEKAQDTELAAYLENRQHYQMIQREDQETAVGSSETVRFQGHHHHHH

Structure (SMILES): COC(=O)C1CN(C(c2ccc(F)cc2)c2ccc(F)cc2)CCN1c1c(C#N)c(=O)n(C)c2ccc(Br)nc12 (stereo not drawn) [Example 115, Methyl 4-(bis(4-fluorophenyl)methyl)-1-(6-bromo-3-cyano-1-methyl-2-oxo-1,2-dihydro-1,5-naphthyridin-4-yl)piperazine-2-carboxylate]
- pIC50 ([1]; liposome (LIPGLO) assay): 5.06
- pIC50 ([2]; liposome (LIPGLO) assay): 6.00
- pEC50 [3, 5]: 6.41
- pEC50 [4, 6]: 5.70

Structure (SMILES): C[C@@H]1CN(c2cc(=O)n(C)c3ccc(C#N)nc23)[C@@H](C)CN1Cc1cccc(F)c1F [Example 286, 8-[(2S,5R)-4-[(2,3-difluorophenyl)methyl]-2,5-dimethylpiperazin-1-yl]-5-methyl-6-oxo-5,6-dihydro-1,5-naphthyridine-2-carbonitrile]
- pIC50 ([1]; liposome (LIPGLO) assay): 5.49
- pIC50 ([2]; liposome (LIPGLO) assay): 5.72
- pEC50 [3, 5]: 6.43
- pEC50 [4, 6]: 5.66

Structure (SMILES): CC[C@@H]1CN(c2cc(=O)n(C)c3ccc(C#N)nc23)[C@@H](C)CN1C(c1ccc(F)cc1)c1ncccc1F (stereo partly drawn) [Example 1105]
- pIC50 ([1]; liposome (LIPGLO) assay): 6.36
- pIC50 ([2]; liposome (LIPGLO) assay): 6.82
- pEC50 [3, 7]: 6.70
- pEC50 [4, 7]: 6.49

Structure (SMILES): CC(c1ccc(C(F)(F)F)cc1F)N1C[C@H](C)N(c2cc(=O)n(C)c3ccc(C#N)nc23)C[C@H]1C (single isomer, unassigned) [Example 434]
- pIC50 ([1]; liposome (LIPGLO) assay): 6.15
- pIC50 ([2]; liposome (LIPGLO) assay): 5.74
- pEC50 [3, 5]: 8.24
- pEC50 [4, 6]: 6.22

Structure (SMILES): Cc1nc(C(F)(F)F)ccc1CN1C[C@H](C)N(c2cc(=O)n(C)c3ccc(C#N)nc23)C[C@H]1C [Example 279, 8-[(2S,5R)-2,5-dimethyl-4-{[2-methyl-6-(trifluoromethyl)pyridin-3-yl]methyl}piperazin-1-yl]-5-methyl-6-oxo-5,6-dihydro-1,5-naphthyridine-2-carbonitrile]
- pIC50 ([1]; liposome (LIPGLO) assay): 5.34
- pIC50 ([2]; liposome (LIPGLO) assay): 5.64
- pEC50 [3, 5]: 5.92
- pEC50 [4, 6]: 5.43

Structure (SMILES): C[C@@H]1CN(c2cc(=O)n(C)c3ccc(C#N)nc23)[C@@H](C)CN1C(c1ccc(F)cc1)c1ccc(Cl)cn1 (single isomer, unassigned) [Example 212]
- pIC50 ([1]; liposome (LIPGLO) assay): 6.23
- pIC50 ([2]; liposome (LIPGLO) assay): 6.68
- pEC50 [3, 7]: 7.24
- pEC50 [4, 7]: 6.05

Structure (SMILES): C[C@H]1CN(C(c2ccc(Cl)cc2)c2ccc(Cl)cc2)[C@H](CO)CN1c1cc(=O)n(C)c2ccc(C#N)nc12 [Example 1152]
- pIC50 ([1]; liposome (LIPGLO) assay): 4.62
- pIC50 ([2]; liposome (LIPGLO) assay): 5.13
- pEC50 [3, 5]: 5.00
- pEC50 [4, 6]: 6.11

Structure (SMILES): C[C@@H]1CN(c2cc(=O)n(C)c3ccc(C#N)nc23)[C@@H](C)CN1Cc1c(F)cccc1Cl [Example 261, 8-[(2S,5R)-4-[(2-chloro-6-fluorophenyl)methyl]-2,5-dimethylpiperazin-1-yl]-5-methyl-6-oxo-5,6-dihydro-1,5-naphthyridine-2-carbonitrile]
- pIC50 ([1]; liposome (LIPGLO) assay): 5.96
- pIC50 ([2]; liposome (LIPGLO) assay): 6.41
- pEC50 [3, 5]: 6.64
- pEC50 [4, 6]: 6.06

Structure (SMILES): Cc1ccc(C(c2ccc(Cl)cn2)N2C[C@H](C)N(c3cc(=O)n(C)c4ccc(C#N)nc34)C[C@H]2C)cc1 (single isomer, unassigned) [Example 200]
- pIC50 ([1]; liposome (LIPGLO) assay): 6.70
- pIC50 ([2]; liposome (LIPGLO) assay): 7.21
- pEC50 [3, 7]: 7.40
- pEC50 [4, 7]: 6.27

Structure (SMILES): Cc1ccc(C(c2cc(C)ccn2)N2C[C@H](C)N(c3cc(=O)n(C)c4ccc(C#N)nc34)C[C@H]2C)cc1 (single isomer, unassigned) [Example 460]
- pIC50 ([1]; liposome (LIPGLO) assay): 7.42
- pIC50 ([2]; liposome (LIPGLO) assay): 7.52
- pEC50 [3, 5]: 7.57
- pEC50 [4, 7]: 6.28

Structure (SMILES): C[C@@H]1CN(c2cc(=O)n(C)c3ccc(C#N)nc23)[C@@H](C)CN1Cc1c(Cl)cccc1Cl [Example 263, 8-[(2S,5R)-4-[(2,6-dichlorophenyl)methyl]-2,5-dimethylpiperazin-1-yl]-5-methyl-6-oxo-5,6-dihydro-1,5-naphthyridine-2-carbonitrile]
- pIC50 ([1]; liposome (LIPGLO) assay): 5.77
- pIC50 ([2]; liposome (LIPGLO) assay): 5.19
- pEC50 [3, 5]: 6.21
- pEC50 [4, 6]: 5.20

Structure (SMILES): CCc1cc(F)ccc1C(c1ccc(F)cc1)N1C[C@H](C)N(c2cc(=O)n(C)c3ccc(C#N)nc23)C[C@H]1C (single isomer, unassigned) [Example 227]
- pIC50 ([1]; liposome (LIPGLO) assay): 6.00
- pIC50 ([2]; liposome (LIPGLO) assay): < 3.60
- pEC50 [3, 5]: 7.80
- pEC50 [4, 7]: 4.89

Structure (SMILES): C[C@@H]1CN(c2cc(=O)n(C)c3ccc(C#N)nc23)[C@@H](C)CN1C(c1ccc(F)cc1)c1ccncn1 (single isomer, unassigned) [Example 392]
- pIC50 ([1]; liposome (LIPGLO) assay): 5.68
- pIC50 ([2]; liposome (LIPGLO) assay): 6.74
- pEC50 [3, 5]: 7.18
- pEC50 [4, 6]: 6.48

Structure (SMILES): CC[C@H]1CN(C(c2ccc(Cl)cc2)c2ccc(F)cn2)[C@H](CC)CN1c1cc(=O)n(C)c2ccc(C#N)nc12 (single isomer, unassigned) [Example 1034]
- pIC50 ([1]; liposome (LIPGLO) assay): 6.47
- pIC50 ([2]; liposome (LIPGLO) assay): 7.19
- pEC50 [3, 7]: 7.77
- pEC50 [4, 7]: 6.64

Structure (SMILES): C[C@@H]1CN(c2cc(=O)n(C)c3ccc(C#N)nc23)[C@@H](C)CN1Cc1ccc(Cl)cc1O [Example 244, 8-[(2S,5R)-4-[(4-chloro-2-hydroxyphenyl)methyl]-2,5-dimethylpiperazin-1-yl]-5-methyl-6-oxo-5,6-dihydro-1,5-naphthyridine-2-carbonitrile]
- pIC50 ([1]; liposome (LIPGLO) assay): 5.96
- pIC50 ([2]; liposome (LIPGLO) assay): 6.59
- pEC50 [3, 5]: 6.96
- pEC50 [4, 6]: 5.77

Structure (SMILES): C[C@@H]1CN(c2cc(=O)n(C)c3ccc(C#N)nc23)[C@@H](C)CN1C(c1ccc(F)cc1)c1cc(F)cc(F)c1 (stereo partly drawn) [Example 289, 8-[(2S,5R)-4-[(3,5-difluorophenyl)(4-fluorophenyl)methyl]-2,5-dimethylpiperazin-1-yl]-5-methyl-6-oxo-5,6-dihydro-1,5-naphthyridine-2-carbonitrile]
- pIC50 ([1]; liposome (LIPGLO) assay): 6.12
- pIC50 ([2]; liposome (LIPGLO) assay): 5.52
- pEC50 [3, 5]: 6.66
- pEC50 [4, 6]: 6.00

Structure (SMILES): Cc1ccc(C(c2ccc(Cl)cc2)N2C[C@H](C)N(c3cc(=O)n(C)c4ccc(C#N)nc34)C[C@H]2C)nc1 (single isomer, unassigned) [Example 213]
- pIC50 ([1]; liposome (LIPGLO) assay): 6.10
- pIC50 ([2]; liposome (LIPGLO) assay): 6.44
- pEC50 [3, 7]: 5.96
- pEC50 [4, 6]: 6.34

Structure (SMILES): COc1ncccc1C(c1ccc(F)cc1)N1C[C@H](C)N(c2cc(=O)n(C)c3ccc(C#N)nc23)C[C@H]1C (single isomer, unassigned) [Example 209]
- pIC50 ([1]; liposome (LIPGLO) assay): 6.49
- pIC50 ([2]; liposome (LIPGLO) assay): 4.82
- pEC50 [3, 5]: 6.77
- pEC50 [4, 6]: 5.82

Structure (SMILES): C[C@@H]1CN(c2cc(=O)n(C)c3ccc(C#N)nc23)[C@@H](C)CN1C(c1ccccn1)c1ccc(F)cc1F (single isomer, unassigned) [Example 682]
- pIC50 ([1]; liposome (LIPGLO) assay): 5.82
- pIC50 ([2]; liposome (LIPGLO) assay): 6.24
- pEC50 [3, 5]: 7.41
- pEC50 [4, 7]: 6.49

Structure (SMILES): Cc1cccc(C(c2ccc(F)cc2)N2CCN(c3c(C#N)c(=O)n(C)c4ccc(C#N)nc34)C[C@H]2C)n1 (single isomer, unassigned) [Example 906]
- pIC50 ([1]; DGKζ liposome (LIPGLO) assay): 6.03
- pIC50 ([2]; DGKα liposome (LIPGLO) assay): 6.00
- pEC50 ([3]; Homo sapiens, T-cell, 20 h, naïve human CD8 T cells, anti-CD3 plus anti-CD28, 3 μM reference compound = 100% activation): 7.17
- pEC50 ([4]; anti-CD3 plus anti-CD28, 24 hours, 3 μM reference compound = 100% activation): 6.09

Structure (SMILES): C[C@@H]1CN(c2cc(=O)n(C)c3ccc(C#N)nc23)[C@@H](C)CN1Cc1c(F)ccc(F)c1Cl [Example 266, 8-[(2S,5R)-4-[(2-chloro-3,6-difluorophenyl)methyl]-2,5-dimethylpiperazin-1-yl]-5-methyl-6-oxo-5,6-dihydro-1,5-naphthyridine-2-carbonitrile]
- pIC50 ([1]; liposome (LIPGLO) assay): 5.68
- pIC50 ([2]; liposome (LIPGLO) assay): 5.85
- pEC50 [3, 5]: 5.96
- pEC50 [4, 6]: 5.55

Structure (SMILES): CCc1cc(F)ccc1C(c1ccc(F)cc1)N1C[C@H](C)N(c2cc(=O)n(C)c3ccc(OC)nc23)C[C@H]1C (single isomer, unassigned) [Example 234]
- pIC50 ([1]; liposome (LIPGLO) assay): 5.06
- pIC50 ([2]; liposome (LIPGLO) assay): 3.62
- pEC50 [3, 7]: 5.60
- pEC50 [4, 7]: 4.70

Structure (SMILES): CC[C@H]1CN(C(c2ccc(Cl)cc2)c2ccc(Cl)cc2)[C@H](C)CN1c1cc(=O)n(C)c2ccc(C#N)nc12 [Example 1120]
- pIC50 ([1]; liposome (LIPGLO) assay): 7.12
- pIC50 ([2]; liposome (LIPGLO) assay): 6.96
- pEC50 [3, 5]: 7.49
- pEC50 [4, 6]: 6.17

Structure (SMILES): COC[C@@H]1CN(c2cc(=O)n(C)c3ccc(C#N)nc23)[C@@H](C)CN1C(c1ccc(C)cc1)c1ccc(C)cc1 [Example 1156]
- pIC50 ([1]; liposome (LIPGLO) assay): 6.36
- pIC50 ([2]; liposome (LIPGLO) assay): 5.60
- pEC50 [3, 5]: 7.72
- pEC50 [4, 6]: 6.47

From patent US10669272B2, “Substituted naphthyridinone compounds useful as T cell activators” (BRISTOL-MYERS SQUIBB COMPANY, priority 2018, dated 2020)
